Experiments:
[1] = species on record: Mus musculus; experiment: Lipoprotein lowering effect in mice at 3-6 hrs was determined; format: functional
[2] = test system: Mus musculus; experiment: Percentage liver uptake of [125I]LDL upon intravenous injection to C57BL/6J mice; format: functional
[3] = Uptake by the liver in mice at 60 min after injection; format: ADME, tissue-based; conditions: mouse, in vivo, 1 h
[4] = Binding affinity for mouse asialoglycoprotein receptor using [125I]-glycolipid3
[5] = Half-life in C57BL/6J mice upon intravenous administration of 3.33 mg/kg; format: ADME, organism-based; parameters: dose 3.33 mg/kg, route intravenous; conditions: mouse, in vivo
[6] = test system: Mus musculus; experiment: Percentage liver uptake of [3H]HDL upon intravenous injection to C57BL/6J mice

Uptake [3]: 44%
half-life [5]: ~30 min
SMILES: CCCCCCCC/C=C\CCCCCCCC(=O)N[C@H]1CC[C@@]2(C)C(CC[C@H]3[C@@H]4CC[C@H](C(C)CCC(=O)N[C@@H](Cc5ccc(O)cc5)C(=O)NCC(=O)NC(COCCC(=O)NCCOCCOCCOC5OC(CO)C(O)C(O)C5NC(C)=O)(COCCC(=O)NCCOCCOCCOC5OC(CO)C(O)C(O)C5NC(C)=O)COCCC(=O)NCCOCCOCCOC5OC(CO)C(O)C(O)C5NC(C)=O)[C@@]4(C)CC[C@@H]32)C1 (stereo partly specified)
Peak effect [1]: 20%
Activity [2]: 70%
Ki [4]: 2 nM
Activity [6]: 78%

Reference: ChEMBL document CHEMBL1138816, “Design and synthesis of novel N-acetylgalactosamine-terminated glycolipids for targeting of lipoproteins to the hepatic asialoglycoprotein receptor” (J Med Chem, 2004)
